Measured values reported in patent publication US20230175195A1, “PLASMA COATING TREATMENT METHOD FOR INHIBITING BIOLOGICAL PATHOGEN TRANSFER” (MOLECULAR PLASMA GROUP S.A., priority 2020, published 2023).
Read-outs that look alike come from different tables or passages of the source.

What was measured:
Bacteriophage MS2 = assay: Viral load reduction test per ASTM E2721-16 with MS2 instead of Influenza A, on plasma-coated substrate; assay type: cell-based
[1] = tested on: Staphylococcus aureus (gram-positive); assay: Quantitative antibacterial activity test of treated materials (OECD guideline, ISO 22197/20743), gram-positive; assay type: cell-based, S. aureus ATCC6538P
[2] = tested on: Escherichia coli (gram-negative); assay: Quantitative antibacterial activity test of treated materials (OECD guideline, ISO 22197/20743), gram-negative
Excerpt: The coatings in the tests described below were obtained using a PlasmaSpot® by Molecular Plasma Technology, using a power around 100 W (but any power between 60-450 W can work), a voltage about 15 kV (but any voltage between 5 and 25 kV seems to work), a frequency about 60 kHz, plasma gas N2, (but also N2, He, Ar, even air and mixtures thereof can be used), a plasma gas flowabout 100 slm (but any plasma flow between 10 and 250 slm can be used), the precursor injected as aerosol (but a liquid precursor, gas precursor, a mixture of liquids, solutions, dispersions, etc . . . also work well), a working distance about 8 mm (but any working distance between 1 and 20 mm seems to work), a temperature about room temperature.
Further tests were performed to illustrate antibacterial behaviour. Tests were performed on a polypropylene nonwoven (PPNW) substrate having a density of 25 g/m^2, which is commonly used as the outer layer of a surgical face mask, and on the synthetic textile Tyvek®.
Droplets containing bacterial suspension are placed on the treated material and evaluated after an incubation period. After the incubation, the bacteria are recovered from the tested material by washing it with a recovery medium. This recovery medium is then analysed for presence of the pathogen by incubation of the recovery medium on agar plates.
The bacteriae used in the testing were Staphylococcus aureus (gram-positive) and Escherichia coli (gram-negative).
The test is based on the international standard given by OECD guidelines for testing of chemicals based on ISO standards 22197/20743: Quantitative method for evaluating antibacterial activity of porous and non-porous antibacterial treated materials.

[3] = plasma coating of the precursor on Tyvek substrate, MS2 phages, LOD = limit of detection
[4] = plasma coating on PPNW substrate (polypropylene nonwoven, 25 g/m^2)
[5] = plasma coating on synthetic textile substrate (Tyvek)

Compound | LOG Reduction (Bacteriophage MS2; [3]) | % Gram+ bacteria reduced [1, 4] | Gram+ log reduction [1, 4] | % Gram+ bacteria reduced [1, 5] | Gram+ log reduction [1, 5] | % Gram− bacteria reduced [2, 4] | Gram− log reduction [2, 4] | % Gram− bacteria reduced [2, 5] | Gram− log reduction [2, 5] | LOG Reduction (Bacteriophage MS2)
Citric Acid | >5.0 (LOD) | >99.995% | >4.3 | >99.98% | >3.8 | >99.999% | >5.0 | 97.5% | 1.6 | 
CCCCCCCCCCCCCCCCCC[N+](C)(C)CCC[Si](OC)(OC)OC.[Cl-] [SiQAM, Dimethyloctadecyl[3-(trimethoxysilyl)propyl] ammonium chloride] | 1.56 | >99.994% | >4.2 | >99.95% | >3.3 | >99.9996% | >5.4 | >98.7% | >1.9 | 
PVP-I2 Poly(vinylpyrrolidone)-Iodine complex [reference compound] |  | >99.994% | >4.2 |  |  | >99.9996% | >5.4 |  |  | 
Benzalkonium chloride |  | >99.994% | >4.2 | >99.5% | >3.3 | 99.9996% | 5.4 | 98.7% | 1.9 | >3.8 (LOD)
